From PubChem BioAssay AID248 (DTP/NCI, 2004)
Values joined by “and” are separate entries in the source; they are usually repeats but may differ in a detail not shown here. Equal entries are not always repeated. Toxic doses and inconclusive results are not listed. No stated cut-off is given here; in the data, active means T/C of 150% or more; inactive means T/C below 125%.

System: L1210 leukemia ip in BDF1 mice, survival T/C
Test: NCI In Vivo Anticancer Drug Screen. Data for tumor model L1210 Leukemia (intraperitoneal) in B6D2F1 (BDF1) mice
Conditions: endpoint: mean survival time, higher = longer survival
How it was run: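 Transplanted-tumor mice were given test agent; controls received vehicle only. Survival readings from the two groups were divided (treated over control).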

[1] = dose: 200.0 mg/kg/injection, schedule: Q01DX001 (ip), vehicle: saline
[2] = dose: 50.0 mg/kg/injection, schedule: Q01DX009 (ip), vehicle: saline with Tween-80
[3] = dose: 100.0 mg/kg/injection, schedule: Q04DX003 (ip), vehicle: saline with Tween-80
[4] = dose: 200.0 mg/kg/injection, schedule: Q04DX003 (ip), vehicle: saline with Tween-80
[5] = dose: 100.0 mg/kg/injection, schedule: Q01DX009 (ip), vehicle: Klucel (hydroxypropylcellulose) (HPC)
[6] = dose: 200.0 mg/kg/injection, schedule: Q01DX009 (ip), vehicle: Klucel (hydroxypropylcellulose) (HPC)
[7] = dose: 100.0 mg/kg/injection, schedule: Q04DX002 (ip), vehicle: saline with Tween-80
[8] = dose: 200.0 mg/kg/injection, schedule: Q04DX002 (ip), vehicle: saline with Tween-80
[9] = dose: 400.0 mg/kg/injection, schedule: Q04DX003 (ip), vehicle: saline with Tween-80
[10] = dose: 100.0 mg/kg/injection, schedule: Q01DX009 (ip), vehicle: saline with Tween-80
[11] = dose: 200.0 mg/kg/injection, schedule: Q01DX009 (ip), vehicle: saline with Tween-80
[12] = dose: 100.0 mg/kg/injection, schedule: Q01DX001 (ip), vehicle: Klucel (hydroxypropylcellulose) (HPC)
[13] = dose: 200.0 mg/kg/injection, schedule: Q01DX001 (ip), vehicle: Klucel (hydroxypropylcellulose) (HPC)

Measured: T/C

Cc1c2oc3c(C)c([N+](=O)[O-])cc(C(=O)NC4C(=O)NC(C(C)C)C(=O)N5CCCC5C(=O)N(C)CC(=O)N(C)C(C(C)C)C(=O)OC4C)c3nc-2c(C(=O)NC2C(=O)NC(C(C)C)C(=O)N3CCCC3C(=O)N(C)CC(=O)N(C)C(C(C)C)C(=O)OC2C)c(N)c1=O (stereo unspecified)
inactive: dose: 75.0 micrograms/kg/injection, schedule: Q01DX009 (ip), vehicle: saline + alcohol 110 % of control | dose: 100.0 micrograms/kg/injection, schedule: Q01DX009 (ip), vehicle: saline + alcohol 116 % of control | dose: 150.0 micrograms/kg/injection, schedule: Q01DX009 (ip), vehicle: saline + alcohol 111 % of control | dose: 300.0 micrograms/kg/injection, schedule: Q01DX009 (ip), vehicle: saline + alcohol 108 % of control | dose: 400.0 micrograms/kg/injection, schedule: Q01DX009 (ip), vehicle: saline + alcohol 96 % of control | dose: 400.0 micrograms/kg/injection, schedule: Q04DX003 (ip), vehicle: saline + alcohol 124 % of control | dose: 600.0 micrograms/kg/injection, schedule: Q04DX003 (ip), vehicle: saline + alcohol 119 % of control | dose: 800.0 micrograms/kg/injection, schedule: Q04DX003 (ip), vehicle: saline + alcohol 106 % of control | dose: 1200.0 micrograms/kg/injection, schedule: Q04DX003 (ip), vehicle: saline + alcohol 111 % of control

Cc1ccc([Si](O)(c2ccc(C)cc2)c2ccc(C)cc2)cc1
inactive: dose: 100.0 mg/kg/injection, schedule: Q01DX001 (ip), vehicle: other 97 % of control | dose: 200.0 mg/kg/injection, schedule: Q01DX001 (ip), vehicle: other 97 % of control | dose: 400.0 mg/kg/injection, schedule: Q01DX001 (ip), vehicle: other 100 % of control

O=C1NN=C(c2ccccc2)C1Cc1ccccc1 (stereo unspecified)
inactive: dose: 100.0 mg/kg/injection, schedule: Q01DX001 (ip), vehicle: saline 94 % of control | [1] 94 % of control | dose: 400.0 mg/kg/injection, schedule: Q01DX001 (ip), vehicle: saline 105 % of control

CCCCCCC(O)C[N+](=O)[O-] (stereo unspecified)
inactive: dose: 12.5 mg/kg/injection, schedule: Q01DX009 (ip), vehicle: saline with Tween-80 100 % of control | dose: 25.0 mg/kg/injection, schedule: Q01DX009 (ip), vehicle: saline with Tween-80 98 % of control | [2] 93 % of control | [3] 107 % of control | [4] 86 % of control

SC1c2cc(Cl)ccc2-c2c(Cl)cc(Cl)cc21 (stereo unspecified)
inactive: dose: 100.0 mg/kg/injection, schedule: Q01DX001 (ip), vehicle: carboxymethylcellulose (CMC) 93 % of control | dose: 200.0 mg/kg/injection, schedule: Q01DX001 (ip), vehicle: carboxymethylcellulose (CMC) 98 % of control | dose: 400.0 mg/kg/injection, schedule: Q01DX001 (ip), vehicle: carboxymethylcellulose (CMC) 117 % of control

O=C(Nc1ccccc1F)OCCOc1ccccc1Cl
inactive: [5] 115 % of control | [6] 112 % of control | dose: 400.0 mg/kg/injection, schedule: Q01DX009 (ip), vehicle: Klucel (hydroxypropylcellulose) (HPC) 124 % of control

CCCCCCCCCCCS(=O)(=O)C(CCOS(C)(=O)=O)COS(C)(=O)=O (stereo unspecified)
inactive: [5] 93 % of control | dose: 100.0 mg/kg/injection, schedule: Q04DX003 (ip), vehicle: Klucel (hydroxypropylcellulose) (HPC) 100 % of control | [6] 95 % of control | dose: 200.0 mg/kg/injection, schedule: Q04DX003 (ip), vehicle: Klucel (hydroxypropylcellulose) (HPC) 98 % of control | dose: 400.0 mg/kg/injection, schedule: Q04DX003 (ip), vehicle: Klucel (hydroxypropylcellulose) (HPC) 96 % of control

CCCCCCCCCCCCCCCC(=O)Nc1cccc(C)c1C
inactive: [7] 93 % of control | [8] 86 % of control

O=[N+]([O-])c1ccc(O)c(/C=N/N2CCCCC2)c1
inactive: [7] 94 % of control | [8] 97 % of control | dose: 400.0 mg/kg/injection, schedule: Q04DX002 (ip), vehicle: saline with Tween-80 108 % of control

Nc1cc(Cl)ccc1NCCO
inactive: dose: 33.0 mg/kg/injection, schedule: Q01DX009 (ip), vehicle: saline 101 % of control | dose: 66.0 mg/kg/injection, schedule: Q01DX009 (ip), vehicle: saline 86 % of control | dose: 132.0 mg/kg/injection, schedule: Q01DX001 (ip), vehicle: saline 97 % of control and 111 % of control | dose: 132.0 mg/kg/injection, schedule: Q04DX003 (ip), vehicle: acetone 97 % of control | [1] 97 % of control and 105 % of control | dose: 300.0 mg/kg/injection, schedule: Q01DX001 (ip), vehicle: saline 100 % of control and 105 % of control

CNNC(=O)CCc1ccccc1
inactive: dose: 10.0 mg/kg/injection, schedule: Q01DX009 (ip), vehicle: saline 103 % of control | dose: 20.0 mg/kg/injection, schedule: Q01DX009 (ip), vehicle: saline 93 % of control | dose: 40.0 mg/kg/injection, schedule: Q01DX009 (ip), vehicle: saline 90 % of control

CCCCOCC1CO1 (stereo unspecified)
inactive: [3] 92 % of control | [4] 95 % of control | [9] 98 % of control

O=C(O)c1ccccc1-c1ccccc1C(=O)Nc1ccc2c(c1)C(=O)c1ccccc1-2
inactive: [3] 104 % of control | [4] 101 % of control | [9] 98 % of control

O=C(/C(=N\O)c1ccc(Cl)cc1)c1ccc(Cl)cc1
inactive: [2] 100 % of control | [10] 89 % of control | [11] 92 % of control

CCOC(=O)CNc1ccc(C)c(C)c1
inactive: dose: 100.0 mg/kg/injection, schedule: Q04DX002 (ip), vehicle: Klucel (hydroxypropylcellulose) (HPC) 95 % of control | dose: 200.0 mg/kg/injection, schedule: Q04DX002 (ip), vehicle: Klucel (hydroxypropylcellulose) (HPC) 109 % of control | dose: 400.0 mg/kg/injection, schedule: Q04DX002 (ip), vehicle: Klucel (hydroxypropylcellulose) (HPC) 104 % of control

CCCCCCCCCCCCCCCCCCN=C(Cl)Cl
inactive: [12] 88 % of control | [13] 96 % of control | dose: 400.0 mg/kg/injection, schedule: Q01DX001 (ip), vehicle: Klucel (hydroxypropylcellulose) (HPC) 98 % of control

CC1CCC(C(=O)O)ON1 (stereo unspecified)
inactive: dose: 100.0 mg/kg/injection, schedule: Q04DX002 (ip), vehicle: saline 114 % of control | dose: 200.0 mg/kg/injection, schedule: Q04DX002 (ip), vehicle: saline 95 % of control | dose: 400.0 mg/kg/injection, schedule: Q04DX002 (ip), vehicle: saline 100 % of control

[Br][Hg][c]1ccccc1
inactive: dose: 75.0 mg/kg/injection, schedule: Q01DX001 (ip), vehicle: carboxymethylcellulose (CMC) 108 % of control

CC/C(C)=C\CC/C(C)=C/COc1cccc([N+](=O)[O-])c1
inactive: dose: 50.0 mg/kg/injection, schedule: Q01DX009 (ip), vehicle: carboxymethylcellulose (CMC) 97 % of control | dose: 100.0 mg/kg/injection, schedule: Q01DX009 (ip), vehicle: carboxymethylcellulose (CMC) 92 % of control | dose: 200.0 mg/kg/injection, schedule: Q01DX009 (ip), vehicle: carboxymethylcellulose (CMC) 101 % of control

CC1(C)N=C(N)N=C(N)N1c1ccc(Oc2ccc(S(=O)(=O)F)cc2)cc1
inactive: dose: 50.0 mg/kg/injection, schedule: Q01DX001 (ip), vehicle: Klucel (hydroxypropylcellulose) (HPC) 92 % of control | [12] 95 % of control | [13] 100 % of control

CCOC(=O)N/N=C(/C)c1ccc(C)cc1
inactive: [2] 95 % of control and 121 % of control | dose: 100.0 mg/kg/injection, schedule: Q01DX001 (ip), vehicle: saline with Tween-80 103 % of control | [10] 105 % of control and 89 % of control | [7] 95 % of control and 104 % of control | [3] 97 % of control | dose: 200.0 mg/kg/injection, schedule: Q01DX001 (ip), vehicle: saline with Tween-80 101 % of control | [11] 101 % of control and 110 % of control | [8] 101 % of control and 110 % of control | [4] 97 % of control | dose: 400.0 mg/kg/injection, schedule: Q01DX001 (ip), vehicle: saline with Tween-80 102 % of control | [9] 110 % of control
